Source: patent publication US20230265056A1, “CRYSTALLINE FORMS OF BENZAMIDE COMPOUND AND PROCESS FOR PREPARING THE SAME” (CRYSTAL PHARMATECH CO., LTD., priority 2020, published 2023)
Values after ≈ are worked out from the molar mass of the structure shown. Each block holds one molecule with its values, some of them ahead of it.

Assays:
Crystal habit by PLM = assay type: physicochemical; details: compared with Form A
Description: About 10 mg of Form J (from example 1) and Form A (from WO2020234779A1) were weighed and placed onto a glass slide, respectively, the solid were dispersed with several vacuum pump oil, and then covered with a cover glass. The samples were observed using PLM.

physchem = details: thermodynamic from solid
Description: (§1) Suspend Form J (from example 1), amorphous (from example 2) and Form A (from WO2020234779A1) in Simulated Gastric Fluid (SGF), Fasted-State Simulated Intestinal Fluid (FaSSIF), Fed-State Simulated Intestinal Fluid (FeSSIF) and pure water, respectively. After equilibrium for 1 hour, 8 hours and 24 hours, filter the solution for HPLC test.

[1] = Solid-state stability (XRPD and HPLC purity); assay type: physicochemical; details: for Purity: HPLC; for Solid form: XRPD
Description: Weigh appropriate amount of Form J (from example 1) into a 5-mL glass vial, and then seal the vial with parafilm (pricked 5 pinholes). Place the vial under 25° C./60% RH and 40° C./75% RH for some time, and then separate several solids out for XRPD and HPLC purity test.

PSD test = assay type: physicochemical; details: Isopar G (0.2% lecithin), before and after sonication for 30 s, compared with Form A
Description: Approximately 10-30 mg of each of Form J (from example 1) and Form A (from WO2020234779A1) were added into 5 mL Isopar G (0.2% lecithin) to form a suspension, respectively. The suspension was loaded into SDC system for data collection, which was collected before and after sonication for 30 s.

[2] = Sticking propensity (powder adhering to punch tip); assay type: physicochemical; details: 6 mm circle punches, 10 kN pressure, compared with Form A
Description: Approximately 30 mg of each of Form J (from example 1) and Form A (from WO2020234779A1) were compressed by 6 mm circle punches under 10 kN pressure, respectively. The loading mass (ML) and tablet mass (MT) were recorded, and mass percentage of powder adhering to punch tip (ma) was calculated by the equation of ma=(ML−MT)/ML×100%.

[3] = Hygroscopicity by DVS test, with XRPD before and after; assay type: physicochemical; details: for Water uptake at 25° C., 80% / Water uptake at 25° C., 90%: DVS; for Water uptake at 25° C., 80%: 80% relative humidity; for Water uptake at 25° C., 90%: 90% relative humidity
Description: The dynamic vapor sorption diagrams of the present disclosure were collected on Intrinsic-type and Intrinsic Plus-type dynamic vapor sorption instruments of SMS company. The process parameters of the dynamic vapor sorption test of the present disclosure were as follows:
Protection gas and its flow rate: N2, 200 mL/minute
Minimum dm/dt equilibration time: 10 minutes
Maximum Equilibration Time: 180 minutes
Relative humidity range: 0% RH-95% RH-0% RH, 50% RH-95% RH-0% RH
Relative humidity gradient: 10% (0% RH-90% RH-0% RH), 5% (90% RH-95% RH and 95% RH-90% RH).
Weigh approximately 10 mg of a form of formula (I) (i.e., Form A from WO2020234779A1), 10 mg of Form J and 10 mg of amorphous for DVS test, and then collect the obtained solid for XRPD analysis. The DVS plots of Form A, Form J and amorphous were shown in FIGS. 6, 8 and 10, and the XRPD overlay were shown in
Following is Description and definition of hygroscopicity (see appendix XIX J, guidance for hygroscopicity evaluation of Pharmacopoeia of the People's Republic of China 2010): […]

[4] = Intrinsic dissolution of compressed thin tablet; assay type: physicochemical; details: pH 1.5 aqueous HCl solution
Description: Approximately 100 mg of each of Form J (from example 1) and Form A (from WO2020234779A1) were compressed by intrinsic dissolution mold under 10 kN pressure to obtain a thin tablet with surface area of 1.0 cm2, respectively. Dissolution experiment was performed on the tablets, and the corresponding result was summarized in Table 4, dissolution profile was shown in FIG. 16.

[5] = would covert to Form A under certain conditions; cited from earlier work
[6] = Kinetic solubility in SGF, FaSSIF, FeSSIF and pure water (HPLC); details: for solubility kinetic at 1 h / solubility kinetic at 4 h / solubility kinetic at 24 h: thermodynamic from solid
Description: as §1

- Crystal habit (Crystal habit by PLM): better crystal habit than Form A
- solubility kinetic at 1 h (physchem; fassif): 24 µg/mL (≈ 47.3 µM)
- solubility kinetic at 4 h (physchem; fassif): 14 µg/mL (≈ 27.6 µM)
- solubility kinetic at 24 h (physchem; fassif): 16 µg/mL (≈ 31.5 µM)
- solubility kinetic at 1 h (physchem; fessif): 130 µg/mL (≈ 256 µM)
- solubility kinetic at 4 h (physchem; fessif): 53 µg/mL (≈ 104 µM)
- solubility kinetic at 24 h (physchem; fessif): 57 µg/mL (≈ 112 µM)
- solubility kinetic at 1 h (physchem; simulated gastric fluid): 2400 µg/mL (≈ 4730 µM)
- solubility kinetic at 4 h (physchem; simulated gastric fluid): 2700 µg/mL (≈ 5320 µM)
- solubility kinetic at 24 h (physchem; simulated gastric fluid): 2600 µg/mL (≈ 5120 µM)
- solubility kinetic at 1 h (physchem; water): 12 µg/mL (≈ 23.6 µM)
- solubility kinetic at 4 h (physchem; water): 15 µg/mL (≈ 29.6 µM)
- solubility kinetic at 24 h (physchem; water): 19 µg/mL (≈ 37.4 µM)
- Purity/initial Purity ([1]; 25° C./60% RH, 1 week): 99.6%
- Purity ([1]; 25° C./60% RH, 1 week): 99.09 area %
- Solid form ([1]; 25° C./60% RH, 1 week): Form J
- Purity/initial Purity ([1]; 25° C./60% RH, 2 weeks): 99.0%
- Purity ([1]; 25° C./60% RH, 2 weeks): 98.48 area %
- Solid form ([1]; 25° C./60% RH, 2 weeks): Form J
- Purity/initial Purity ([1]; 25° C./60% RH, 4 weeks): 99.2%
- Purity ([1]; 25° C./60% RH, 4 weeks): 98.71 area %
- Solid form ([1]; 25° C./60% RH, 4 weeks): Form J
- Purity/initial Purity ([1]; 25° C./60% RH, 8 weeks): 98.7%
- Purity ([1]; 25° C./60% RH, 8 weeks): 97.94 area %
- Solid form ([1]; 25° C./60% RH, 8 weeks): Form J
- Purity/initial Purity ([1]; 40° C./75% RH, 1 week): 99.6%
- Purity ([1]; 40° C./75% RH, 1 week): 99.05 area %
- Solid form ([1]; 40° C./75% RH, 1 week): Form J
- Purity/initial Purity ([1]; 40° C./75% RH, 2 weeks): 98.9%
- Purity ([1]; 40° C./75% RH, 2 weeks): 98.39 area %
- Solid form ([1]; 40° C./75% RH, 2 weeks): Form J
- Purity/initial Purity ([1]; 40° C./75% RH, 4 weeks): 99.0%
- Purity ([1]; 40° C./75% RH, 4 weeks): 98.42 area %
- Solid form ([1]; 40° C./75% RH, 4 weeks): Form J
- Purity/initial Purity ([1]; 40° C./75% RH, 8 weeks): 98.0%
- Purity ([1]; 40° C./75% RH, 8 weeks): 97.32 area %
- Solid form ([1]; 40° C./75% RH, 8 weeks): Form J
- Sticking propensity [2]: lower sticking propensity than Form A
- Water uptake at 25° C., 80% [3]: 0.53%
- Water uptake at 25° C., 90% [3]: 0.60%
- Cumulative dissolution amount ([4]; 5 mins): 1.1 mg
- Cumulative dissolution amount ([4]; 10 mins): 2.5 mg
- Cumulative dissolution amount ([4]; 15 mins): 2.9 mg
- Cumulative dissolution amount ([4]; 20 mins): 3.3 mg
- Cumulative dissolution amount ([4]; 25 mins): 3.9 mg
- Cumulative dissolution amount ([4]; 30 mins): 4.7 mg
- Cumulative dissolution amount ([4]; 60 mins): 5.6 mg
- Cumulative dissolution amount ([4]; 75 mins): 7.2 mg
Compound: C=CC(=O)N(C)CCOc1c(N)ncnc1-c1cc(F)cc(NC(=O)c2ccc(C3CC3)cc2F)c1C [Form J, N-(3-(6-amino-5-(2-(N-methylacrylamido)ethoxy)pyrimidin-4-yl)-5-fluoro-2-methylphenyl)-4-cyclopropyl-2-fluorobenzamide]
- Form change and HPLC purity decrease on storage ([1]; 25° C./60% RH and 40° C./75% RH for 8 weeks): no obvious form change and HPLC purity decrease
- Particle size distribution (PSD test): more uniform particle size distribution than Form A
- Dissolution compared with Form A [4]: larger total dissolution amount and higher cumulative dissolution rate than Form A

Compound: C=CC(=O)N(C)CCOc1c(N)ncnc1-c1cc(F)cc(NC(=O)c2ccc(C3CC3)cc2F)c1C [Form B, N-(3-(6-amino-5-(2-(N-methylacrylamido)ethoxy)pyrimidin-4-yl)-5-fluoro-2-methylphenyl)-4-cyclopropyl-2-fluorobenzamide]
- Thermodynamic stability [5]: less thermodynamically stable

- Kinetic solubility ([6]; FaSSIF, 24 hr): 11 µg/mL
- solubility kinetic at 1 h ([6]; Fasted-State Simulated Intestinal Fluid (FaSSIF), fassif, 1 hr): 10 µg/mL (≈ 19.7 µM)
- solubility kinetic at 4 h ([6]; Fasted-State Simulated Intestinal Fluid (FaSSIF), fassif, 4 hr): 11 µg/mL (≈ 21.7 µM)
- solubility kinetic at 1 h ([6]; Fed-State Simulated Intestinal Fluid (FeSSIF), fessif, 1 hr): 33 µg/mL (≈ 65 µM)
- solubility kinetic at 4 h ([6]; Fed-State Simulated Intestinal Fluid (FeSSIF), fessif, 4 hr): 34 µg/mL (≈ 67 µM)
- solubility kinetic at 24 h ([6]; Fed-State Simulated Intestinal Fluid (FeSSIF), fessif, 24 hr): 33 µg/mL (≈ 65 µM)
- Kinetic solubility ([6]; SGF, 1 hr): 1400 µg/mL
- solubility kinetic at 4 h ([6]; Simulated Gastric Fluid (SGF), simulated gastric fluid, SGF, 4 hr): 1000 µg/mL (≈ 1970 µM)
- solubility kinetic at 24 h ([6]; Simulated Gastric Fluid (SGF), simulated gastric fluid, SGF, 24 hr): 950 µg/mL (≈ 1870 µM)
- solubility kinetic at 1 h ([6]; pure water, water, H2O, 1 hr): 4.6 µg/mL (≈ 9.06 µM)
- solubility kinetic at 4 h ([6]; pure water, water, H2O, 4 hr): 4.4 µg/mL (≈ 8.67 µM)
- solubility kinetic at 24 h ([6]; pure water, water, H2O, 24 hr): 4.3 µg/mL (≈ 8.47 µM)
- Water uptake at 25° C., 80% [3]: 3.37%
- Water uptake at 25° C., 90% [3]: 4.14%
Compound: C=CC(=O)N(C)CCOc1c(N)ncnc1-c1cc(F)cc(NC(=O)c2ccc(C3CC3)cc2F)c1C [Amorphous, N-(3-(6-amino-5-(2-(N-methylacrylamido)ethoxy)pyrimidin-4-yl)-5-fluoro-2-methylphenyl)-4-cyclopropyl-2-fluorobenzamide]
- Hygroscopicity ([3]; class per Pharmacopoeia of the People's Republic of China 2010): Hygroscopic (increase in mass is less than 15 percent and equal to or greater than 2 percent)

- Kinetic solubility ([6]; FaSSIF, 1 hr): 6.1 µg/mL
- Kinetic solubility ([6]; FaSSIF, 4 hr): 6.5 µg/mL
- Kinetic solubility ([6]; FaSSIF, 24 hr): 5 µg/mL
- Kinetic solubility ([6]; FeSSIF, 1 hr): 20 µg/mL
- Kinetic solubility ([6]; FeSSIF, 4 hr): 22 µg/mL
- Kinetic solubility ([6]; FeSSIF, 24 hr): 22 µg/mL
- Kinetic solubility ([6]; H2O, 1 hr): 3.7 µg/mL
- Kinetic solubility ([6]; H2O, 4 hr): 3.9 µg/mL
- Kinetic solubility ([6]; H2O, 24 hr): 2.9 µg/mL
- Kinetic solubility ([6]; SGF, 1 hr): 690 µg/mL
- Kinetic solubility ([6]; SGF, 4 hr): 710 µg/mL
- Kinetic solubility ([6]; SGF, 24 hr): 700 µg/mL
- Water uptake at 25° C., 80% [3]: 0.54%
- Water uptake at 25° C., 90% [3]: 0.68%
- Cumulative dissolution amount ([4]; 5 mins): 0.5 mg
- Cumulative dissolution amount ([4]; 10 mins): 0.9 mg
- Cumulative dissolution amount ([4]; 15 mins): 1.3 mg
- Cumulative dissolution amount ([4]; 20 mins): 1.6 mg
- Cumulative dissolution amount ([4]; 25 mins): 2.1 mg
- Cumulative dissolution amount ([4]; 30 mins): 2.7 mg
- Cumulative dissolution amount ([4]; 60 mins): 3.2 mg
- Cumulative dissolution amount ([4]; 75 mins): 4.3 mg
Compound: C=CC(=O)N(C)CCOc1c(N)ncnc1-c1cc(F)cc(NC(=O)c2ccc(C3CC3)cc2F)c1C [Form A, N-(3-(6-amino-5-(2-(N-methylacrylamido)ethoxy)pyrimidin-4-yl)-5-fluoro-2-methylphenyl)-4-cyclopropyl-2-fluorobenzamide, reference compound]
